Test results: PubChem BioAssay (NCI)
Values joined by “and” are separate entries in the source; they are usually repeats but may differ in a detail not shown here. Equal values may be shown once.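 Step 1: Grow cells in 96-well plates. Step 2: Expose to compound for 48 hours at 5 concentrations. Step 3: Interpolate endpoints linearly; if unreached, use highest concentration. GI50 marks 50% less growth. At the TGI there is no net growth.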

What was measured:
Test in all cases: DTP human tumour cell line panel, 48 h
[1] = test system: IGROV1 ovarian
[2] = test system: SN12C renal
[3] = test system: NCI-H23 lung
[4] = test system: OVCAR-8 ovarian
[5] = test system: HOP-62 NSCLC
[6] = test system: KM12 colon
[7] = test system: HL-60(TB) leukemia
[8] = test system: UO-31 renal
[9] = test system: 786-0 renal
[10] = test system: SF-268 CNS

Compound | GI50 [1] | TGI [1] | GI50 [2] | TGI [2] | GI50 [3] | TGI [3] | GI50 [4] | TGI [4] | GI50 [5] | TGI [5] | GI50 [6] | TGI [6] | GI50 [7] | TGI [7] | GI50 [8] | TGI [8] | GI50 [9] | TGI [9] | GI50 [10] | TGI [10]
CC(=O)O[C@H]1C[C@@H]2[C@@]3(C)CC[C@H]4C[C@@]4(C)[C@@H]3CC[C@@]2(C)C2=CCC3=C(COC3=O)[C@]21C | 26.5 µM | 78 µM | 18.7 µM | 38.3 µM | 20.1 µM | 49.9 µM | 19.9 µM | 65 µM | 17.5 µM | 36.4 µM | 18.7 µM | 43.6 µM | 52.7 µM | > 100 µM | 32.1 µM | > 100 µM | 18.6 µM | 37.7 µM | 21 µM | 46.9 µM
COc1cc(/C=C/C(=O)c2nc3cc(F)ccc3nc2C)cc(OC)c1OC | 11.4 µM | > 100 µM | 6.3 µM | > 100 µM | > 47.9 µM | > 100 µM | 5.38 µM | > 100 µM | > 27.8 µM | > 100 µM | 3.49 µM | > 100 µM | 1.78 µM |  | 7.07 µM | > 100 µM | > 23.2 µM | > 100 µM | 7.01 µM | > 100 µM
COc1cc(NC(=O)COc2ccccc2)c(C(N)=O)cc1OC | 4.07 µM | > 100 µM | 3.12 µM | > 100 µM | 1.32 µM | 20.4 µM | 3.01 µM | > 100 µM | 1.75 µM | 24.3 µM | 0.442 µM | > 100 µM | 0.293 µM | 7.25 µM | 13.5 µM | > 100 µM | 7.32 µM | 38.8 µM | 6.77 µM | 45.7 µM
CCOC(=O)C#Cc1c(C(=O)OCC)nnn1[C@@H]1O[C@H](COC)[C@@H](OC)[C@H]1OC | 18.4 µM | 39.6 µM | 3.81 µM | 14.6 µM | 12.3 µM | 26.3 µM | 6.94 µM | 21.7 µM | 25.7 µM | 63.1 µM | 16.7 µM | 33.3 µM | 1.98 µM | 5.41 µM | 1.88 µM | 4.38 µM | 13.3 µM | 26.7 µM | 16.3 µM | 35.6 µM
Cn1cc(-c2ccc3c(c2)ncn3-c2cc(NS(=O)(=O)C3CC3)cc(-c3ccc(F)cc3F)c2)cn1 | 3.49 µM | 61.9 µM | 2.99 µM | > 100 µM | 20.6 µM | > 100 µM | 15.4 µM | > 100 µM | 14.1 µM | > 100 µM | 4.96 µM | > 100 µM | 11.9 µM | 45.4 µM | 0.635 µM | 36.7 µM | 6.05 µM | > 100 µM | 3.01 µM | > 100 µM
Cc1ccc(-c2nc([P+](c3ccccc3)(c3ccccc3)c3ccccc3)c(N3CCOCC3)o2)cc1 | 0.419 µM | 4.11 µM | 0.335 µM | 4.16 µM | 0.456 µM | 7.45 µM | 0.505 µM | 9.5 µM | 0.83 µM | 6.61 µM | 0.368 µM | 1.82 µM | 0.246 µM | 0.738 µM | 2.23 µM | 7.3 µM | 2.54 µM | 12.7 µM | 0.389 µM | 11 µM
CCCCCCCCCCCCOC1C(C(COC2OC(C(O)CO)C3OC(C)(C)OC23)OC(=O)Nc2ccccc2)OC2OC(C)(C)OC21 (centres undefined) | 4.94 µM | 15.3 µM | 4.89 µM | 16.6 µM | 7.39 µM | 19.6 µM | 8.24 µM | 26.2 µM | 9.7 µM | 22.2 µM | 2.99 µM | 8.76 µM | 0.484 µM | 1.6 µM | 9.01 µM | 23.7 µM | 5.84 µM | 17.2 µM | 4.47 µM | 16.6 µM
N=C(N)SCc1ccc(Cl)c2ccccc12 (tested in a mixture with another compound) |  | 29 µM and 30.8 µM |  | 24.3 µM and 24.9 µM |  | 29 µM and 29.2 µM |  | 50.1 µM and > 77.8 µM |  | 24.3 µM and 30.5 µM |  | 28.3 µM and 27.7 µM |  | 12.6 µM and 17.8 µM |  | 24.3 µM and 26.3 µM |  | 23.9 µM and 27.2 µM |  | 33.3 µM and 33.5 µM
O=C1[C@H](Cc2ccc(O)cc2)N2C(=O)CCN(C(=O)NCc3ccccc3)[C@H]2CN1Cc1cccc2ccccc12 | 1.42 µM | 10.5 µM | 4.18 µM | > 100 µM | 4.05 µM | 34.5 µM | 0.959 µM | 13.5 µM | 3.22 µM | 19.1 µM | 3.1 µM | 15.3 µM | 4.84 µM | 27.3 µM | 11.3 µM | 77.9 µM | 3.15 µM | > 46.8 µM | 1.81 µM | 15.5 µM
C/C(=C\c1ccccc1)C(O)C(=O)c1nc2ccc(Cl)cc2[nH]c1=O (centres undefined) |  | > 100 µM |  | > 100 µM |  | > 100 µM |  | > 100 µM |  | > 100 µM |  | > 100 µM |  | > 100 µM |  | > 100 µM |  | > 100 µM |  | > 100 µM
